{
  "source": "ChEMBL document CHEMBL4840379",
  "about": "“RIBOTACs: Small Molecules Selectively Destroy Cancer-Associated RNA” (ACS Med Chem Lett, 2021)",
  "key": {"[1]": {"assay": "Turnovers, ratio of RIBOTAC activity at Pre-miR-21 RNA/RNase L in human MDA-MB-231 cells assessed as decrease in pre-miR-21 level by measuring cleaved pre-miR-21 level at 500 nM incubated for 24 hrs […] to drug concentration in human MDA-MB-231 cells", "type": "functional"}, "[2]": {"assay": "Drug uptake in human MDA-MB-231 cells assessed as compound level at 500 nM incubated for 24 hrs", "type": "ADME, cell-based", "conditions": "mda-mb-231, 24 h, 0.5 µM"}, "A-375": {"tested_on": "A-375", "assay": "Antiinvasive activity in human A-375 cells assessed as decrease in pre-miR-21 overexpression induced invasion at 500 nM incubated for 24 hrs […]", "type": "functional, cell-based"}, "microRNA 21": {"tested_on": "microRNA 21", "assay": "RIBOTAC activity at Pre-miR-21 RNA/RNase L in human MDA-MB-231 cells assessed as decrease in pre-miR-21 level by measuring cleaved pre-miR-21 level at 500 nM incubated for 24 hrs […]", "type": "cell-based"}, "A549": {"tested_on": "A549", "assay": "Antiinvasive activity in human A549 cells assessed as decrease in pre-miR-21 overexpression induced invasion at 500 nM incubated for 24 hrs […]", "type": "functional, cell-based"}},
  "note": "Calls of active or inactive are those of the source. No cut-off for these calls is given here.",
  "data": [
    {"compound": "CCCN(CC(=O)N(CCC)CC(=O)N(CCC)CC(=O)N(CC(=O)NCCOCCOCCOCCOc1ccc(/C=C2\\SC(Nc3ccccc3)=C(C(=O)OCC)C2=O)cc1O)Cc1cn(CCCNC(=O)CCCOc2ccc(-c3nc4ccc(-c5ccc(N6CCN(C)CC6)cc5)cc4[nH]3)cc2)nn1)C(=O)CN(Cc1cn(CCCNC(=O)CCCOc2ccc(-c3nc4cc(-c5ccc(N6CCN(C)CC6)cc5)ccc4[nH]3)cc2)nn1)C(C)=O", "values": [
      {"measurement": "Ratio", "setting": "[1]", "value": 26},
      {"measurement": "Drug uptake", "setting": "[2]", "value": 2.6, "unit": "pmol"},
      {"measurement": "Activity", "setting": "A-375", "value": "Active"},
      {"measurement": "Activity", "setting": "microRNA 21", "value": 68, "unit": "pmol"},
      {"measurement": "Activity", "setting": "A549", "value": "Active"}
    ]}
  ]
}
